Test results from patent publication US20090099062A1 (priority 2007, published 2009).

Experiments:
Format in all cases: cell-based
[1] = test system: SW620; assay: Cell viability (CellTiter-Glo), SW620; details: Homo sapiens, SW-620; SW620, 48 hr
Method: (§1) Cancer cell growth, viability, and apoptosis assays. HCT116, SW620, SW480, MDA-MB-231 cancer lines were maintained according to ATCC guidelines. For cell growth and viability assays, cells were seeded at 2000 cells/100 μl/well in 96-well plates. Cell number was measured at different time points using CellTiter-Glo® Luminescent Cell Viability Assay (Promega). For apoptosis assays, cells were seeded at 5000 cells/100 μl/well in 96-well plates. Drug was added for 24 hr and Caspase-3 and -7 activities were measured using Apo-ONE® Homogeneous Caspase-3/7 Assay (Promega).

[2] = test system: Wnt-mediated gene transcription; assay: Topflash reporter assay in HEK 293 cells; details: Homo sapiens, HEK293; HEK 293 cells stimulated with Wnt3a, Topflash luciferase; read-out: EC50, inhibition of Wnt-mediated transcription
Method: Topflash reporter assay. HEK 293 cells stably expressing 8× Supertopflash were seeded in quadruplicate at 15,000 cells/well/100 μl of medium in 96 well-plate. […] Cells were lysed in passive lysis buffer (Promega), and luciferase was measured according to Promega's Steady-Glo protocol.

[3] = test system: MDA-MB-231; assay: Cell viability (CellTiter-Glo), MDA-MB-231; details: Homo sapiens; MDA-MB-231, 48 hr
Method: as §1

[4] = test system: SW480; assay: Cell viability (CellTiter-Glo), SW480; details: Homo sapiens; SW480, 48 hr
Method: as §1

Measured: EC50

Cc1cc(/C=C/c2ccc3cc(N(C)C)ccc3[n+]2C)c(C)n1-c1ccccc1 [pyrvinium, pyrvinium pamoate]
< 0.05 µM: all assays above
